Test results: patent publication US20230085307A1, “PYRIDAZINONE COMPOUND AND HERBICIDE” (NISSAN CHEMICAL CORPORATION, priority 2019, published 2023)

How the values were obtained:
[1] = test system: Italian ryegrass; assay: Test Example 5: herbicidal effect by foliage application, plastic box (Table 20, symbol K); assay type: in vivo, Italian ryegrass (Lolium multiflorum); details: foliage application, AAH 320 g/ha, evaluated three weeks after application
How it was run: (§1)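 Sow seeds spot-wise in sterilized diluvial soil; cover with ~1.5 cm soil. Grow 14 days in greenhouse, 25° C. to 30° C. Spray foliage with emulsion diluted to predetermined amount. Rate effect after 3 weeks.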

[2] = test system: Chinese sprangletop; assay: Test Example 3: herbicidal effect by foliage application, Wagner pot (Table 18, symbol D); assay type: in vivo, chinese sprangletop (Leptochloa chinensis); details: amount of applied herbicide 320 g/ha
How it was run: (§2)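 Plants were sown in alluvial soil held under 0.1–0.5 cm standing water and grown 14 days in a greenhouse at 25–30 °C. An emulsifiable formulation, water-diluted to the set dose, was then sprayed onto the foliage, and effects were scored three weeks later using previously defined criteria.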

[3] = test system: blackgrass; assay: Test Example 4: herbicidal effect by soil treatment (Table 19, symbol J); assay type: in vivo, blackgrass (Alopecurus myosuroides); details: amount of applied herbicide 320 g/ha
How it was run: (§3)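 Soil-surface application: an emulsion agent diluted with water to the predetermined dose is sprayed uniformly over seeds lying under roughly 1.5 cm of sterilized diluvial soil. Boxes stay in a greenhouse at 25° C. to 30° C. Three weeks later, each species is graded on previously defined criteria.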

[4] = test system: Italian ryegrass; assay: Test Example 4: herbicidal effect by soil treatment (Table 19, symbol K); assay type: in vivo, Italian ryegrass (Lolium multiflorum); details: amount of applied herbicide 320 g/ha
How it was run: as §3

[5] = test system: southern crabgrass; assay: Test Example 5: herbicidal effect by foliage application, plastic box (Table 20, symbol F); assay type: in vivo, southern crabgrass (Digitaria ciliaris); details: foliage application, AAH 320 g/ha, evaluated three weeks after application
How it was run: as §1

[6] = test system: barnyard grass; assay: Test Example 5: herbicidal effect by foliage application, plastic box (Table 20, symbol H); assay type: in vivo, barnyard grass (Echinochloa crus-galli); details: foliage application, AAH 320 g/ha, evaluated three weeks after application
How it was run: as §1

[7] = test system: persian speedwell; assay: Test Example 5: herbicidal effect by foliage application, plastic box (Table 20, symbol R); assay type: in vivo, Persian speedwell (Veronica persica); details: foliage application, AAH 320 g/ha, evaluated three weeks after application
How it was run: as §1

[8] = test system: lambsquarters; assay: Test Example 4: herbicidal effect by soil treatment (Table 19, symbol O); assay type: in vivo, lambsquarters (Chenopodium album); details: amount of applied herbicide 320 g/ha
How it was run: as §3

[9] = test system: windgrass; assay: Test Example 5: herbicidal effect by foliage application, plastic box (Table 20, symbol L); assay type: in vivo, windgrass (Apera spica-venti); details: foliage application, AAH 320 g/ha, evaluated three weeks after application
How it was run: as §1

[10] = test system: persian speedwell; assay: Test Example 4: herbicidal effect by soil treatment (Table 19, symbol R); assay type: in vivo, Persian speedwell (Veronica persica); details: amount of applied herbicide 320 g/ha
How it was run: as §3

[11] = test system: southern crabgrass; assay: Test Example 4: herbicidal effect by soil treatment (Table 19, symbol F); assay type: in vivo, southern crabgrass (Digitaria ciliaris); details: amount of applied herbicide 320 g/ha
How it was run: as §3

[12] = test system: wild oat; assay: Test Example 5: herbicidal effect by foliage application, plastic box (Table 20, symbol I); assay type: in vivo, wild oat (Avena fatua); details: foliage application, AAH 320 g/ha, evaluated three weeks after application
How it was run: as §1

[13] = test system: Japanese bulrush; assay: Test Example 1: herbicidal activity, application before weed generation under submerged conditions (Table 16, symbol B); assay type: in vivo, Japanese bulrush (Schoenoplectus juncoides); details: amount of applied herbicide 320 g/ha
How it was run: (§4)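 Emulsion formulation, water-diluted to set dose, was put onto the flooded surface (4 cm depth, alluvial soil) the same day weeds were sown and 2.5-leaf rice transplanted. After 3 weeks at 25-30 °C under glass, each species was rated 0 (≤5% kill) to 5 (≥90% kill).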

[14] = test system: redroot pigweed; assay: Test Example 5: herbicidal effect by foliage application, plastic box (Table 20, symbol N); assay type: in vivo, redroot pigweed (Amaranthus retroflexus); details: foliage application, AAH 320 g/ha, evaluated three weeks after application
How it was run: as §1

[15] = test system: blackgrass; assay: Test Example 5: herbicidal effect by foliage application, plastic box (Table 20, symbol J); assay type: in vivo, blackgrass (Alopecurus myosuroides); details: foliage application, AAH 320 g/ha, evaluated three weeks after application
How it was run: as §1

[16] = test system: windgrass; assay: Test Example 4: herbicidal effect by soil treatment (Table 19, symbol L); assay type: in vivo, windgrass (Apera spica-venti); details: amount of applied herbicide 320 g/ha
How it was run: as §3

[17] = test system: velvetleaf; assay: Test Example 5: herbicidal effect by foliage application, plastic box (Table 20, symbol M); assay type: in vivo, velvetleaf (Abutilon theophrasti); details: foliage application, AAH 320 g/ha, evaluated three weeks after application
How it was run: as §1

[18] = test system: rice flat sedge; assay: Test Example 3: herbicidal effect by foliage application, Wagner pot (Table 18, symbol E); assay type: in vivo, rice flat sedge (Cyperus iria); details: amount of applied herbicide 320 g/ha
How it was run: as §2

[19] = test system: green foxtail; assay: Test Example 5: herbicidal effect by foliage application, plastic box (Table 20, symbol G); assay type: in vivo, green foxtail (Setaria viridis); details: foliage application, AAH 320 g/ha, evaluated three weeks after application
How it was run: as §1

[20] = test system: oval-leafed pondweed; assay: Test Example 1: herbicidal activity, application before weed generation under submerged conditions (Table 16, symbol C); assay type: in vivo, oval-leafed pondweed (Monochoria vaginalis); details: amount of applied herbicide 320 g/ha
How it was run: as §4

[21] = test system: barnyard grass; assay: Test Example 4: herbicidal effect by soil treatment (Table 19, symbol H); assay type: in vivo, barnyard grass (Echinochloa crus-galli); details: amount of applied herbicide 320 g/ha
How it was run: as §3

[22] = test system: barnyard grass; assay: Test Example 3: herbicidal effect by foliage application, Wagner pot (Table 18, symbol H); assay type: in vivo, barnyard grass (Echinochloa crus-galli); details: amount of applied herbicide 320 g/ha
How it was run: as §2

[23] = test system: late watergrass; assay: Test Example 1: herbicidal activity, application before weed generation under submerged conditions (Table 16, symbol A); assay type: in vivo, late watergrass (Echinochloa oryzicola); details: amount of applied herbicide 320 g/ha
How it was run: as §4

[24] = test system: chickweed; assay: Test Example 5: herbicidal effect by foliage application, plastic box (Table 20, symbol P); assay type: in vivo, common chickweed (Stellaria media); details: foliage application, AAH 320 g/ha, evaluated three weeks after application
How it was run: as §1

[25] = test system: green foxtail; assay: Test Example 4: herbicidal effect by soil treatment (Table 19, symbol G); assay type: in vivo, green foxtail (Setaria viridis); details: amount of applied herbicide 320 g/ha
How it was run: as §3

[26] = test system: velvetleaf; assay: Test Example 4: herbicidal effect by soil treatment (Table 19, symbol M); assay type: in vivo, velvetleaf (Abutilon theophrasti); details: amount of applied herbicide 320 g/ha
How it was run: as §3

[27] = test system: wild oat; assay: Test Example 4: herbicidal effect by soil treatment (Table 19, symbol I); assay type: in vivo, wild oat (Avena fatua); details: amount of applied herbicide 320 g/ha
How it was run: as §3

[28] = test system: chickweed; assay: Test Example 4: herbicidal effect by soil treatment (Table 19, symbol P); assay type: in vivo, common chickweed (Stellaria media); details: amount of applied herbicide 320 g/ha
How it was run: as §3

[29] = test system: lambsquarters; assay: Test Example 5: herbicidal effect by foliage application, plastic box (Table 20, symbol O); assay type: in vivo, lambsquarters (Chenopodium album); details: foliage application, AAH 320 g/ha, evaluated three weeks after application
How it was run: as §1

[30] = test system: redroot pigweed; assay: Test Example 4: herbicidal effect by soil treatment (Table 19, symbol N); assay type: in vivo, redroot pigweed (Amaranthus retroflexus); details: amount of applied herbicide 320 g/ha
How it was run: as §3

Structure (SMILES): COc1ccccc1-c1sc2ccc(C=O)cc2c1-c1c(O)c(C)nn(C)c1=O [2-395]
- K: Italian ryegrass, herbicidal effect (criteria 0-5) [1]: 0 (Herbicidal rate of 5% or less (almost no effect))
- herbicidal effect on D: Chinese sprangletop [2]: 3 (Herbicidal rate of 40% or more and less than 70%)
- herbicidal effect, J: blackgrass [3]: 0 (Herbicidal rate of 5% or less (almost no effect))
- herbicidal effect, K: Italian ryegrass [4]: 0 (Herbicidal rate of 5% or less (almost no effect))
- F: southern crabgrass, herbicidal effect (criteria 0-5) [5]: 3 (Herbicidal rate of 40% or more and less than 70%)
- H: barnyard grass, herbicidal effect (criteria 0-5) [6]: 3 (Herbicidal rate of 40% or more and less than 70%)
- R: persian speedwell, herbicidal effect (criteria 0-5) [7]: 4 (Herbicidal rate of 70% or more and less than 90%)
- herbicidal effect, O: lambsquarters [8]: 3 (Herbicidal rate of 40% or more and less than 70%)
- L: windgrass, herbicidal effect (criteria 0-5) [9]: 0 (Herbicidal rate of 5% or less (almost no effect))
- herbicidal effect, R: persian speedwell [10]: 0 (Herbicidal rate of 5% or less (almost no effect))
- herbicidal effect, F: southern crabgrass [11]: 0 (Herbicidal rate of 5% or less (almost no effect))
- I: wild oat, herbicidal effect (criteria 0-5) [12]: 0 (Herbicidal rate of 5% or less (almost no effect))
- Herbicidal effect, B: Japanese bulrush [13]: 2 (Herbicidal rate of 20% or more and less than 40%)
- N: redroot pigweed, herbicidal effect (criteria 0-5) [14]: 5 (Herbicidal rate of 90% or more (almost completely withered))
- J: blackgrass, herbicidal effect (criteria 0-5) [15]: 0 (Herbicidal rate of 5% or less (almost no effect))
- herbicidal effect, L: windgrass [16]: 0 (Herbicidal rate of 5% or less (almost no effect))
- M: velvetleaf, herbicidal effect (criteria 0-5) [17]: 5 (Herbicidal rate of 90% or more (almost completely withered))
- herbicidal effect on E: rice flat sedge [18]: 3 (Herbicidal rate of 40% or more and less than 70%)
- G: green foxtail, herbicidal effect (criteria 0-5) [19]: 4 (Herbicidal rate of 70% or more and less than 90%)
- Herbicidal effect, C: oval-leafed pondweed [20]: 0 (Herbicidal rate of 5% or less (almost no effect))
- herbicidal effect, H: barnyard grass [21]: 0 (Herbicidal rate of 5% or less (almost no effect))
- herbicidal effect on H: barnyard grass [22]: 3 (Herbicidal rate of 40% or more and less than 70%)
- Herbicidal effect, A: late watergrass [23]: 0 (Herbicidal rate of 5% or less (almost no effect))
- P: chickweed, herbicidal effect (criteria 0-5) [24]: 5 (Herbicidal rate of 90% or more (almost completely withered))
- herbicidal effect, G: green foxtail [25]: 0 (Herbicidal rate of 5% or less (almost no effect))
- herbicidal effect, M: velvetleaf [26]: 0 (Herbicidal rate of 5% or less (almost no effect))
- herbicidal effect, I: wild oat [27]: 0 (Herbicidal rate of 5% or less (almost no effect))
- herbicidal effect, P: chickweed [28]: 0 (Herbicidal rate of 5% or less (almost no effect))
- O: lambsquarters, herbicidal effect (criteria 0-5) [29]: 5 (Herbicidal rate of 90% or more (almost completely withered))
- herbicidal effect, N: redroot pigweed [30]: 3 (Herbicidal rate of 40% or more and less than 70%)
